In patent US20250170158A1, “METHODS OF TREATING MEDICAL CONDITIONS USING CENSAVUDINE OR A RELATED COMPOUND” (ROME Therapeutics, Inc., priority 2022, published 2025):
“Also recorded” adds a separate entry of the source.

Tests used:
[1] = biological target: T1, LINE1 reverse transcriptase (Homo sapiens, UniProt O00370); test: Stable artificial-intron Cis LINE1 reporter assay; format: cell-based; parameters: expressed in transfected cells; conditions: HeLa L1 artificial-intron reporter cells, doxycycline induced, 72 h, Firefly luciferase; read-out: IC50, inhibition of LINE1 reverse transcriptase
Description: A stable HeLa Tet-On 3G (Takara, cat no 631183) cell line expressing a bi-directional inducible LINE1 construct was generated as described in Xie, Y. et al. “Cell division promotes efficient retrotransposition in a stable L1 reporter cell line,” Mobile DNA (2013) 4:10. Single cell clones were screened for high Luciferase expression and the highest expression Firefly expressing clone was chosen for compound testing.
Test compound was serially diluted in DMSO and spotted in 96-well plates. Subsequently the HeLa L1 artifical-intron reporter cells were plated into the compound-containing wells (8,000 cells/well), and the cells were induced for reporter expression with doxycycline (Sigma cat no D9891) at a final concentration of 500 ng/mL. Luminescence was measured 72 h after plating using the Dual-Glo Luciferase Assay System (Promega cat no E2940) following the manufacturer's instructions. The Firefly Luciferase activity was used to report LINE1 activity.

[2] = biological target: T1, LINE1 reverse transcriptase; test: Transient artificial-intron Cis LINE1 reporter assay; format: cell-based; parameters: expressed in transfected cells; conditions: HEK 293 cells; ratio of FLuc to RLuc reports LINE1 activity; read-out: IC50, inhibition of FLuc (FF/RR)
Experimental: Intron-disrupted Firefly luciferase (FLuc) expression cassettes were generated as described by Xie, Y. et al. “Characterization of L1 retrotransposition with high-throughput dual-luciferase assays,” Nucleic Acid Res. (2011) Vol. 39, No. 3, e16. In addition, the plasmid contained an intact Renilla luciferase (RLuc) expression cassette on the vector backbone, in order to normalize transfection efficiency and measure potential cell toxicity.
HEK 293 cells were seeded in 96-well plates at 1,000 cells/well in 55 μL and grown for 24 hours. Cells were transfected with FuGeneHD (Promega) following the manufacturer's protocol. Each well received 0.133 ng plasmid, 0.4 μL FuGeneHD reagent, and 4.5 μL GlutaMAX-I-supplemented Opti-MEM I reduced-serum medium (Invitrogen). Cells were simultaneously treated with test compound serially diluted starting at 100 μM in a 3-fold dilution dose response.
Luminescence was measured using the Dual-Glo Luciferase Assay System (Promega) following the manufacturer's instructions. The ratio between FLuc and RLuc gene expression was used to report LINE1 activity.

[3] = system: IL-17A, IFN, TNF; test: Mouse MOG study: lymph node cell culture and CBA cytokine analysis; format: in vivo, C57BL mice
Experimental: (§1) On day zero, four groups of six C57BL mice were immunized subcutaneously at 2 sites with 0.1 mL/site with MOG35-55/CFA (Hooke immunization kit). Dosing of mice started on day 0 and continued through day 11. The dosing schedule was:
(§2) The Vehicle used was 0.5% methylcellulose. Mice were dosed each day at approximately the same time each day. One day 11, 1 hour after receiving the last dose, plasma was collected, frozen and stored at −80° C. for analysis. At the end of the experiment, all mice were euthanized, and inguinal lymph nodes were collected and processed.
Lymph node cells from each group were set up in 96-well plates with 400k cells/well along with seven concentrations of antigen: 0, 0.07 μg/mL, 0.2 μg/mL, 0.7 μg/mL, 2.2 μg/mL, 6.6 μg/mL and 20.0 μg/mL. After 72 hours of culturing, the supernatants were collected and analyzed for IL-17A, IFN […] , and TNF using CBA kits (Becton-Dickinson).

[4] = system: THP1-Dual KO-TREX1 cells
Experimental: The THP1-Dual™ KO-TREX1 cells were cultured in RPMI 1640, 10% heat-inactivated fetal bovine serum, 25 mM HEPES, 10 μg/mL Blasticidin, and 100 μg/mL Zeocin. THP1-Dual™ KO-TREX1 cells were treated with a dose titration of censavudine alone or in the presence of 1 μM 5-Aza-2′-Deoxycytidine (Sigma, cat #189825). Type 1 Interferon and cell viability were assessed after six days of treatment.
The remaining cells were assessed for cell viability by adding 25 μL of CellTiter-Glo (Promega, G9683) solution to each well, placed on a shaker for 10 minutes at room temperature. Luminescence was detected on a plate reader, according to manufacturer's instructions.

[5] = system: CD4+ T cells; test: Mouse MOG study: BrdU cell proliferation assay on lymph node cells; format: in vivo, C57BL mice
Experimental: as §1, §2
A bromodeoxyuridine (BrdU) cell proliferation assay was run on some of the lymph node cells to determine if treatment of mice with censavudine altered the proliferation of CD4+ T cells in culture upon restimulation with antigen. Cultures of the cells were set up in 96-well plates, each using 400k cells/well along with six concentrations of antigen: 0, 0.2 μg/mL, 0.7 μg/mL, 2.2 μg/mL, 6.6 μg/mL and 20.0 μg/mL, each with duplicates. The cells were cultured for approximately 40 hours, then BrdU was added to all wells at a concentration of 3 μg/mL. The cells were cultured an additional 3 hours after the addition of BrdU. Cells were then collected, stained with anti-CD4 and anti-BrdU antibodies (as per Becton Dickinson's standard protocols for BrdU labeling) and analyzed.

[6] = system: Type 1 Interferon; test: Cellular assay for inhibiting IFN production in THP1 TREX1 KO cells; format: cell-based; conditions: THP1-Dual KO-TREX1 cells, six days of treatment, alone or with 1 μM 5-Aza-2'-Deoxycytidine; FIG. 2
Experimental: THP1 Dual TREX1 KO cells were purchased from Invivogen.
Stock solution of censavudine was prepared in DMSO followed by a three-fold dilution in DMSO. Additional 50× dilution was prepared in cell culture media for each dilution. 10 μL of diluted censavudine was then added to a 96 well plate.
THP1-Dual™ KO-TREX1 cells were treated with either 1×PBS or 1 μM 5-Aza-2′-Deoxycytidine. 190 μL of the THP1-Dual™ KO-TREX1 cells from either treatment were added to each well of the 96-well plate containing censavudine titration at 50,000 cells/well. Cells were incubated at 37° C., 5% CO2 in a humidified incubator for six days. Cells treated with 1 μM 5-Aza-2′-Deoxycytidine were added at the same density as above and incubated at 37° C., 5% CO2 in a humidified incubator for six days. On day six, 25 μL of cell supernatant was transferred to a 96 well white-walled plate, followed by addition of 50 μL of QUANTI-LUC solution containing stabilizer to each well.

[7] = biological target: T2, HERV-K reverse transcriptase (Homo sapiens, UniProt V9H0F6); test: Homogeneous time-resolved fluorescence (HTRF) HERV-K RT assay; format: biochemical; conditions: HERV-K reverse transcriptase (2-596)-8His protein, read-out: IC50, inhibition of HERV-K reverse transcriptase
T2 construct: fused on or other part: C-terminal 8His tag
T2 sequence (V9H0F6 entry or part of it): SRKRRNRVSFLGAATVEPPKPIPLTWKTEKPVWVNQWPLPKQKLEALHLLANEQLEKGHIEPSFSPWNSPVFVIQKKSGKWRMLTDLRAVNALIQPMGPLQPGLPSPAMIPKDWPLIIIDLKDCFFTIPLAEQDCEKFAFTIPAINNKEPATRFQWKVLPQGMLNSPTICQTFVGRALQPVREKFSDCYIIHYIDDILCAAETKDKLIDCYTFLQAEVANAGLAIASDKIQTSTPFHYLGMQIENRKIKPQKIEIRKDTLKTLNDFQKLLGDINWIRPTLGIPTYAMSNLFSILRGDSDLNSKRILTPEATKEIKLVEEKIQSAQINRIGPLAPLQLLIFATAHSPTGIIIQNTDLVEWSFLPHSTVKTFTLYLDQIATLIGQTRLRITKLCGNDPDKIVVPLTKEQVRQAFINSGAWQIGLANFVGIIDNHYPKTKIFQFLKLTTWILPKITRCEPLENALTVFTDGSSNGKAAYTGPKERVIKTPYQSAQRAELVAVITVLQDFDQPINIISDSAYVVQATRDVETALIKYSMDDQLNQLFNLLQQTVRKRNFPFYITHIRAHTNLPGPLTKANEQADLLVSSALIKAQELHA
Experimental: The HERV-K reverse transcriptase homogeneous time-resolved fluorescence (HTRF) assay was performed in a 384-well format with HERV-K reverse transcriptase (2-596)-8His protein. Baculoviruses were created using Bac-to-Bac technology (Invitrogen). pFastBac donor plasmids containing HERV-K reverse transcriptase sequence (NCBI GenBank number AAC63291.1, J. Virology (1999) Vol. 73, No. 3, pp. 2365-2375) were transformed into DH10 Bac cells following the manufacturer's instructions. Recombinant bacmids were then isolated clonally and transfected into SF9 cells with lipofectin. HERV-K reverse transcriptase was expressed in the SF9 insect cells and then purified using immobilized metal affinity chromatography (IMAC) followed by size-exclusion chromatography (SEC). Test compound was serially diluted in DMSO and further diluted in the assay buffer (50 mM Tris-HCl, 50 mM KCl, 10 mM MgCl2, 10 mM DTT, pH 8.1) to achieve a final DMSO concentration of 1%. […] At the end of the incubation, fluorescence was read at ex/em=337/485 nm and ex/em=337/520 nm on an Envision 2104 plate reader (Perkin Elmer). The fluorescence ratio at 520/485 nm was used for the calculation. […] The IC50 was calculated by fitting the compound dose inhibition curve with a 4-parameter non-linear regression equation.

[8] = biological target: T1, LINE1 reverse transcriptase; test: Homogeneous time-resolved fluorescence (HTRF) LINE1 RT assay; format: biochemical; parameters: recombinant MBP-tagged LINE1 protein (238-1061); MBP; made in house; conditions: recombinant MBP-tagged LINE1 protein (238-1061), read-out: IC50, inhibition of LINE1 reverse transcriptase
Experimental: The LINE1 reverse transcriptase homogeneous time-resolved fluorescence (HTRF) assay was performed with recombinant MBP-tagged LINE1 protein (238-1061) (generated and purified according to procedures in Dai L. et al. BMC Biochemistry 2011; 12:18) in a 384-well format. Test compound was serially diluted in DMSO and further diluted in the assay buffer (50 mM Tris-HCl, 50 mM KCl, 10 mM MgCl2, 10 mM DTT, pH 8.1) to achieve a final DMSO concentration of 1%. The serially diluted compound was mixed with 64 ng/well of LINE1 enzyme, 5 nM of pre-annealed template/biotin-primer pair (synthesized at Generay Biotechnology), 10 nM of Fluorescein-12-dATP fluorescent probe (Perkin Elmer), and 1 μM dGTP/dCTP/dTTP (Thermo Fisher Scientific) in the assay buffer. The template/biotin-primer sequences were as follows:
After incubating at 25° C. for 60 minutes, the detection reagent (20 mM EDTA with streptavidin-terbium cryptate, Cisbio Bioassay) in the PPI buffer (Cisbio Bioassay) was added, and the mixture was incubated at 25° C. for 30 minutes. At the end of the incubation, fluorescence was read at ex/em=337/485 nm and ex/em=337/520 nm on an Envision 2104 plate reader (Perkin Elmer). The fluorescence ratio at 520/485 nm was used for the calculation. […] The IC50 was calculated by fitting the compound dose inhibition curve with a 4-parameter non-linear regression equation.

Question: Which IC50 [1] does the source give for `C#C[C@@]1(CO)C=C[C@H](n2cc(C)c(=O)[nH]c2=O)O1` [drawing 16] here?
Answer: 130 nM

Question: And the IC50 [2]?
Answer: 60 nM

Question: Which IL-17A level ([3]; MOG35-55/CFA immunized mice, QD p.o. day 0-11, lymph node cells restimulated with antigen 72 h, FIG. 4A) does the source give for `C#C[C@@]1(CO)C=C[C@H](n2cc(C)c(=O)[nH]c2=O)O1` [censavudine, 1-[(2R,5R)-5-ethynyl-5-(hydroxymethyl)-2H-furan-2-yl]-5-methylpyrimidine-2,4-dione] here?
Answer: reduce levels; also recorded: reduction of IL17A

Question: And the TNF level ([3]; MOG35-55/CFA immunized mice, QD p.o. day 0-11, lymph node cells restimulated with antigen 72 h, FIG. 4B)?
Answer: reduce levels; also recorded: reduction of TNF

Question: What about the IFN level ([3]; MOG35-55/CFA immunized mice, QD p.o. day 0-11, lymph node cells restimulated with antigen 72 h, FIG. 4C) of the same molecule?
Answer: reduce levels; also recorded: reduction of IFN

Question: What about the “proinflammatory cytokines (IL17A, TNF, IFN), effect” value ([3]; all doses (8, 40, 200 mg/kg QD p.o.), FIGS. 4A-4C) of the same molecule?
Answer: some effect

Question: And the “proinflammatory cytokines (IL17A, TNF, IFN), response” value ([3]; doses of 40 mg/kg and 200 mg/kg, FIGS. 4A-4C)?
Answer: best responses

Question: And the “cell viability / cell death” value [4]?
Answer: does not lead to cell death

Question: And the T cell proliferation ([5]; MOG immunized mice, QD p.o. day 0-11, lymph node cells restimulated with antigen, BrdU, FIG. 3A)?
Answer: reduce levels; also recorded: reduction of T-cell proliferation

Question: And the “Th17 (T17)” value ([5]; MOG immunized mice, various doses QD p.o., FIG. 3B)?
Answer: reduce levels; also recorded: reduction of the cytokine Th17

Question: And the “Th1 (T1)” value ([5]; MOG immunized mice, various doses QD p.o., FIG. 3C)?
Answer: reduce levels; also recorded: reduction of the cytokine Th1

Question: And the “autoreactive T-cell responses” value ([5]; doses between 40 mg/kg and 200 mg/kg, FIGS. 3A-3C)?
Answer: significant reduction

Question: What about the “interferon (Type 1 Interferon reporter)” value [6] of the same molecule?
Answer: significant reduction of interferon; also recorded: inhibition of interferon

Question: What does the source list for `C#C[C@@]1(COP(=O)(O)OP(=O)(O)OP(=O)(O)O)C=C[C@H](n2cc(C)c(=O)[nH]c2=O)O1`?
Answer: IC50 [7]: 6400 nM; IC50 [8]: 70 nM
